The values that follow come from patent US20230219962A1, “PYRAZOLO[4,3-d]PYRIMIDINE DERIVATIVES AND METHODS OF USE THEREOF FOR THE TREATMENT OF CELLULAR PROLIFERATIVE DISORDERS” (Merck Sharp & Dohme LLC, priority 2020, published 2023).

In one experiment the target is T1, hTLR8 (Homo sapiens, UniProt Q9NR97).
T1 construct: host or cells: HEK-Blue hTLR8 cells (HEK293-derived, own knowledge)
T1 sequence (Q9NR97 27-1041): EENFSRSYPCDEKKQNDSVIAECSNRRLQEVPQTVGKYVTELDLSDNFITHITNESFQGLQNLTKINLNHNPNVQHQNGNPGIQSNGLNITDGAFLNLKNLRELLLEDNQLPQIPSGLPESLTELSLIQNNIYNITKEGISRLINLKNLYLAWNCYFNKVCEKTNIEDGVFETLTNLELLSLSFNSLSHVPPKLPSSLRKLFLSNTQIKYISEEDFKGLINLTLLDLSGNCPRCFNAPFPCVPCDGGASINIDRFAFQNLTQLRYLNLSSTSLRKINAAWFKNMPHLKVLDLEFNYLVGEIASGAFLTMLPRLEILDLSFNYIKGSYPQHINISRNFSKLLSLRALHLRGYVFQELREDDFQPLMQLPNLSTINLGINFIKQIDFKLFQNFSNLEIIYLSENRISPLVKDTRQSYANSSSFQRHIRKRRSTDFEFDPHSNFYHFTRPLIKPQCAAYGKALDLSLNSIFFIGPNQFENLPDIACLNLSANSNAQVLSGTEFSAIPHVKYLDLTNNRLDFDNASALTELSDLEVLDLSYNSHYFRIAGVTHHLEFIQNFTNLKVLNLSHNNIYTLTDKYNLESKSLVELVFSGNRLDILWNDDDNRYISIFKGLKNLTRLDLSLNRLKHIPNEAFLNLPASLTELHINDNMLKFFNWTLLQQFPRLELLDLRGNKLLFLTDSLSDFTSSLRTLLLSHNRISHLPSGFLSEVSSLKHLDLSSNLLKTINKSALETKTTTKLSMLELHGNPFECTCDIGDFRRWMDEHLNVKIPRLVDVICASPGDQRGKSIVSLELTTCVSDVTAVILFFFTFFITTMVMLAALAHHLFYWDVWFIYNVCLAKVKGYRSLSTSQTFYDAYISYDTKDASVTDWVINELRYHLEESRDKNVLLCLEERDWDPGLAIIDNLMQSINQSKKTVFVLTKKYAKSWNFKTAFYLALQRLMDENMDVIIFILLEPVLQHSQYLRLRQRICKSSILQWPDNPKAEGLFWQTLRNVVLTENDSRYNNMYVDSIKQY
In words: Human TLR8 Reporter Assay. The settings on record: HEK-Blue hTLR8 cells, 16 hours, normalized to tl8-506 (1 μM) and DMSO. The experiment is classed as cell-based. An outline of the steps:
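HEK-Blue hTLR8 cells (20,000/well) incubated 16 h at 37 °C with 10-point 3-fold compound dilutions in HEK-Blue Detection medium; reporter read as absorbance at 620 nm. Effects normalized between DMSO and tl8-506 (1 μM); EC50 from 4-parameter fit.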
(In general: Reporter assays use an easily measured gene product as a stand-in for the process of interest.)

Another experiment concerns the target T2, hTLR7 (Homo sapiens, UniProt Q9NYK1).
T2 construct: host or cells: HEK-Blue hTLR7 cells (HEK293-derived, own knowledge)
T2 sequence (Q9NYK1 27-1049): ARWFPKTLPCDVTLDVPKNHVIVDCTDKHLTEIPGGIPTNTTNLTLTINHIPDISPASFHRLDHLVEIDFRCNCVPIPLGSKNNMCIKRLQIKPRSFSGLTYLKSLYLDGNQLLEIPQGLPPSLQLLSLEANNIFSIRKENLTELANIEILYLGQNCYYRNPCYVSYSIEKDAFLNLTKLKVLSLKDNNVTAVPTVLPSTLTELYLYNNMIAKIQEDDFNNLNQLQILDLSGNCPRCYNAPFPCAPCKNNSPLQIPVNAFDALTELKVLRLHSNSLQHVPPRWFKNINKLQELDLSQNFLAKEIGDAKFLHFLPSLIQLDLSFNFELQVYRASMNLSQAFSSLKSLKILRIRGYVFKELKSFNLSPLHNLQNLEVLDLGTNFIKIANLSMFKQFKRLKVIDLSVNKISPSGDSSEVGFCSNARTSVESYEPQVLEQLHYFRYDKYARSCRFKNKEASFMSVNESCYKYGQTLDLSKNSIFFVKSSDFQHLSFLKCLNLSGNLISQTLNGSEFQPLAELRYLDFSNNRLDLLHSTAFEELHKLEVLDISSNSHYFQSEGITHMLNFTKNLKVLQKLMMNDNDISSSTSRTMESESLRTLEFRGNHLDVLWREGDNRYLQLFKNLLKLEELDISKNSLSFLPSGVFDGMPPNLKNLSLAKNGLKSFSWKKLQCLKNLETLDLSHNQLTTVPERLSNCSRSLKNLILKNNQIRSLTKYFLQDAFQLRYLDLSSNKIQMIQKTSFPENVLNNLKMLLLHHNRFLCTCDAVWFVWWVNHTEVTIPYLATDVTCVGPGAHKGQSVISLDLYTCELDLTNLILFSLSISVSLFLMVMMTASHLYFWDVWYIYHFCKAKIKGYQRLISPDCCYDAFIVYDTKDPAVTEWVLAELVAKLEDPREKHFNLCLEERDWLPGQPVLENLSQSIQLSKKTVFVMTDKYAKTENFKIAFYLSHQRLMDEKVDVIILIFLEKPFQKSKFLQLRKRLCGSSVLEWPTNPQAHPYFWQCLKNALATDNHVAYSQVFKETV
In words: Human TLR7 Reporter Assay. The experiment is classed as cell-based. The settings on record: HEK-Blue hTLR7 cells, 16 hours, normalized to CL097 (6 μM) and DMSO. In a few lines:
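HEK-Blue hTLR7 reporter cells (20,000/well) incubated 16 h at 37 °C with 10-point 3-fold compound dilutions; SEAP read by absorbance at 620 nm. Effects normalized between CL097 (6 μM) and DMSO controls; EC50 from 4-parameter fit.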

Usually EC50 stands for the midpoint of the concentration-response curve.

On to `CCCCNc1nc(N)nc2cn(Cc3ccc(C(C)NC)cc3OC)nc12` (stereo not shown) [Compound 193], for which the EC50 on hTLR8 turned out to be 106 nM; on hTLR7, 57.7 nM.

`CCCCNc1nc(N)nc2cn(Cc3ccc(C(C)NC)cc3OC)nc12` (stereo not shown) [Compound 194]: the figures for the EC50 at hTLR8 and at hTLR7 were 137 nM and 139 nM, respectively.

Regarding `CCC[C@@H](CO)Nc1nc(N)nc2cn(Cc3ncc(CNC)cc3OC)nc12` [Compound 195], the values for the EC50 on hTLR8 and at hTLR7 were 785 nM and 1590 nM, respectively.

For the compound `CCCCNc1nc(N)nc2cn(Cc3ccc(C4CCNC4)cc3)nc12` (stereo not shown) [Compound 196], the figures for the EC50 at hTLR8 and on hTLR7 were 756 nM and 456 nM, respectively.

As for `CCCCNc1nc(N)nc2cn(Cc3cn(C)nc3OC)nc12` [Compound 197], the EC50 was found to be 1590 nM at hTLR8 and 277 nM at hTLR7.

For the compound `CCCCNc1nc(N)nc2cn(Cc3ccc(C4CCNC4)cc3)nc12` (stereo not shown) [Compound 198], the EC50 at hTLR8 is 835 nM; on hTLR7, 396 nM.

With `CCC[C@@H](CO)Nc1nc(N)nc2cn(Cc3c(OC)cc(CN(C)C)cc3OC)nc12` [Compound 199], the EC50 at hTLR8 was 39.9 nM; at hTLR7, 108 nM.

`CCCCNc1nc(N)nc2cn(Cc3ccc(C4CCNC4=O)cc3)nc12` (stereo not shown) [Compound 200]: the 50% effective concentration (EC50) at hTLR8 is 4900 nM; at hTLR7 it was 185 nM.

With `CCCCNc1nc(N)nc2cn(Cc3ccc(C4CCC(=O)N4)cc3)nc12` (stereo not shown) [Compound 201], the EC50 is 3260 nM at hTLR8 and 539 nM at hTLR7.

For the compound `CCCCNc1nc(N)nc2cn(Cc3ccc(C4CCNC4=O)cc3)nc12` (stereo not shown) [Compound 202], the figures for the EC50 at hTLR8 and at hTLR7 were 3470 nM and 354 nM, respectively.

With `CCCCNc1nc(N)nc2cn(Cc3ccc(C4CCC(=O)N4)cc3)nc12` (stereo not shown) [Compound 203], the EC50 at hTLR8 turned out to be 11400 nM; on hTLR7 it was 526 nM.

Regarding `CCCCNc1nc(N)nc2cn(Cc3ccc(C4CCCN4)cc3)nc12` (stereo not shown) [Compound 204], the EC50 came out at 533 nM at hTLR8 and 508 nM at hTLR7.

As to `CCCCNc1nc(N)nc2cn(Cc3ccc(C4CCCN4)cc3)nc12` (stereo not shown) [Compound 205], the EC50 on hTLR8 amounted to 519 nM; on hTLR7, 409 nM.

On to `CCCCNc1nc(N)nc2cn(Cc3c(OC)cccc3OCCCC(=O)OC)nc12` [Compound 206], for which the EC50 amounted to 2640 nM on hTLR8 and 380 nM at hTLR7.

Consider `CCCCNc1nc(N)nc2cn(Cc3c(OC)cccc3OCCCCC(=O)OC)nc12` [Compound 207], for which the figures for the EC50 on hTLR8 and on hTLR7 were 2340 nM and 806 nM, respectively.

For the compound `CCCCNc1nc(N)nc2cn(Cc3c(OC)cccc3OCCCCO)nc12` [Compound 208], the figures for the EC50 at hTLR8 and at hTLR7 were 906 nM and 299 nM, respectively.

For the compound `CCCCNc1nc(N)nc2cn(Cc3c(OC)cc(C(C)NC)cc3OC)nc12` (stereo not shown) [Compound 209], the EC50 at hTLR8 was determined as 161 nM; on hTLR7 it was 200 nM.

`CCC[C@@H](CO)Nc1nc(N)nc2cn(Cc3c(OC)cc(CN(C)CCCN)cc3OC)nc12` [Compound 210]: the EC50 is 15500 nM on hTLR8 and 20100 nM at hTLR7.

For the compound `CCCCNc1nc(N)nc2cn(Cc3c(OC)cc(C(C)NC)cc3OC)nc12` (stereo not shown) [Compound 211], the EC50 was determined as 198 nM on hTLR8 and 365 nM on hTLR7.

Take `CCCCNc1nc(N)nc2cn(Cc3nnco3)nc12` [Compound 212]: the EC50 at hTLR8 came out at 8140 nM; at hTLR7, 7750 nM.

Turning to `CCC[C@@H](CO)Nc1nc(N)nc2cn(Cc3c(OC)cc(CN(C)CCN)cc3OC)nc12` [Compound 213], the concentration for a half-maximal effect (EC50) on hTLR8 was 2230 nM; at hTLR7, 4750 nM.

For the compound `CCCCNc1nc(N)nc2cn(Cc3c(OC)cc(C(C)N)cc3OC)nc12` (stereo not shown) [Compound 214], the concentration giving a half-maximal response (EC50) at hTLR8 was 235 nM; on hTLR7, 525 nM.

Regarding `CCCCNc1nc(N)nc2cn(Cc3c(OC)cc(C(C)N)cc3OC)nc12` (stereo not shown) [Compound 215], the EC50 at hTLR8 came out at 224 nM; on hTLR7, 474 nM.

For the compound `CCCCNc1nc(N)nc2cn(Cc3ccc(C(C)NCCC)cc3OC)nc12` (stereo not shown) [Compound 216], the results for the EC50 on hTLR8 and on hTLR7 were 119 nM and 106 nM, respectively.

Consider `CCCCNc1nc(N)nc2cn(Cc3ccc(C(C)NCCC)cc3OC)nc12` (stereo not shown) [Compound 217], for which the EC50 at hTLR8 is 91.7 nM; at hTLR7, 51.7 nM.

For `CCC[C@@H](CO)Nc1nc(N)nc2cn(Cc3c(OC)cc(CN(C)CCNC(=O)c4cccnc4)cc3OC)nc12` [Compound 218], the EC50 on hTLR8 turned out to be 1490 nM; at hTLR7, 6360 nM.

`CCCCNc1nc(N)nc2cn(Cc3ccc(C(C)N(C)C)cc3OC)nc12` (stereo not shown) [Compound 219]: the EC50 was 275 nM on hTLR8 and 122 nM at hTLR7.

With `CCCCNc1nc(N)nc2cn(Cc3ccc(C(C)N(C)C)cc3OC)nc12` (stereo not shown) [Compound 220], the EC50 at hTLR8 turned out to be 170 nM; at hTLR7, 118 nM.

Turning to `CCC[C@@H](CO)Nc1nc(N)nc2cn(Cc3c(OC)cc(C(CN)N(C)CCC)cc3OC)nc12` (stereo partly shown) [Compound 221], the EC50 at hTLR8 was 3490 nM; at hTLR7, 5090 nM.

Regarding `CCC[C@@H](CO)Nc1nc(N)nc2cn(Cc3c(OC)cc(C(C)N)cc3OC)nc12` (stereo partly shown) [Compound 222], the EC50 at hTLR8 is 1070 nM; at hTLR7, 6280 nM.

In the case of `CCC[C@@H](CO)Nc1nc(N)nc2cn(Cc3c(OC)cc(C(CN)N(C)CCC)cc3OC)nc12` (stereo partly shown) [Compound 223], the EC50 on hTLR8 amounted to 1800 nM; at hTLR7, 4840 nM.

`CCC[C@@H](CO)Nc1nc(N)nc2cn(Cc3c(OC)cc(C(C)N)cc3OC)nc12` (stereo partly shown) [Compound 224]: the values for the EC50 on hTLR8 and on hTLR7 were 2250 nM and 3650 nM, respectively.

As to `CCCCNc1nc(N)nc2cn(Cc3ccc(C(N)CN)cc3OC)nc12` (stereo not shown) [Compound 227], the 50% effective concentration (EC50) on hTLR8 came out at 10800 nM; at hTLR7, 10700 nM.

Take `CCCCNc1nc(N)nc2cn(Cc3ccc(C(N)CCN)cc3OC)nc12` (stereo not shown) [Compound 228]: the EC50 on hTLR8 stood at 7020 nM; at hTLR7, 2370 nM.

With `CCCCNc1nc(N)nc2cn(Cc3ccc(C(N)CCN)cc3OC)nc12` (stereo not shown) [Compound 229], the half-maximal effective concentration (EC50) on hTLR8 came to 11400 nM; on hTLR7 it was 2270 nM.

For `CCCCNc1nc(N)nc2cn(Cc3c(OC)cc(SC[C@H](N)C(=O)O)cc3OC)nc12` [Compound 230], the EC50 on hTLR8 is 8840 nM; on hTLR7 it was 898 nM.

Regarding `CCCNC(C)c1ccc(Cn2cc3nc(N)nc(N[C@H](CO)CCC)c3n2)c(OC)c1` (stereo partly shown) [Compound 231], the EC50 on hTLR8 amounted to 48.9 nM; on hTLR7, 619 nM.

In the case of `CCCNC(C)c1ccc(Cn2cc3nc(N)nc(N[C@H](CO)CCC)c3n2)c(OC)c1` (stereo partly shown) [Compound 232], the concentration giving a half-maximal response (EC50) was found to be 78.1 nM at hTLR8 and 363 nM at hTLR7.
